Laboratory results as given in ChEMBL document CHEMBL1127819, “Classical and nonclassical furo[2,3-d]pyrimidines as novel antifolates: synthesis and biological activities” (J Med Chem, 1994).

Columns and labels:
ACHN = assay: Inhibitory activity against kidney A-CHN tumor cell growth in culture; assay type: functional, cell-based; details: Homo sapiens
Dihydrofolate reductase [1] = molecular target: Dihydrofolate reductase (Lactobacillus casei, UniProt P00381)
Description: Inhibitory concentration for DHFR in Lactobacillus casei

Dihydrofolate reductase [2] = molecular target: T1, Dihydrofolate reductase (Pneumocystis carinii, UniProt P16184); assay: Inhibitory concentration for DHFR in Pneumocystis carinii
T1 sequence (P16184 whole entry): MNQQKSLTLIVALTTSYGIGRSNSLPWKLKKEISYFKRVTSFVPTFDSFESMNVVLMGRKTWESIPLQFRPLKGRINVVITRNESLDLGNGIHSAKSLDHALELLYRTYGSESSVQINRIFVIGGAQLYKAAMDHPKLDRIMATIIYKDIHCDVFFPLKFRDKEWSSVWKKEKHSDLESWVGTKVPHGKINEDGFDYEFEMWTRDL

SK-5 = assay: Inhibitory activity against melanoma SK-5 tumor cell growth in culture; assay type: functional, cell-based; details: Homo sapiens
CCRF-CEM [3] = assay: Inhibitory activity against CCRF-CEM tumor cell growth in culture; assay type: functional, cell-based; details: Homo sapiens
[4] = molecular target: T2, Bifunctional dihydrofolate reductase-thymidylate synthase (Toxoplasma gondii, UniProt Q07422)
T2 sequence (Q07422 whole entry): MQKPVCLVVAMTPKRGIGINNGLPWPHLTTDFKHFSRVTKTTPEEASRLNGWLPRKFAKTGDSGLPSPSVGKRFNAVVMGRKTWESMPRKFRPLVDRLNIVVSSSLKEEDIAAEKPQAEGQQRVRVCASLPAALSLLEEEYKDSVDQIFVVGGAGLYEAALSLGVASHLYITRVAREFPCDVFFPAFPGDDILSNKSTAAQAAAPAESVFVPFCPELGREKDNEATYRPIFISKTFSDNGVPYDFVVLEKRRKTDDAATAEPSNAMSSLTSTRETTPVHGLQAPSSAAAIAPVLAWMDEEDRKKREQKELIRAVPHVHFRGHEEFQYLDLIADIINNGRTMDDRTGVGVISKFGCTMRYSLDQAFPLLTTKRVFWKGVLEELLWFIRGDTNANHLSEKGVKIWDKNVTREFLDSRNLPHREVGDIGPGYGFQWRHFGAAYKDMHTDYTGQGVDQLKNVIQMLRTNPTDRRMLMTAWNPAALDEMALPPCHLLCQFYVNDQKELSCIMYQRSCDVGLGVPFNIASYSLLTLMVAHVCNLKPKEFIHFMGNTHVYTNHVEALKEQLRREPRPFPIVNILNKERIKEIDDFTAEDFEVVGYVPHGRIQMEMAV
Description: Inhibitory concentration for DHFR in Toxoplasma gondii

Dihydrofolate reductase [5] = molecular target: T3, Dihydrofolate reductase (Homo sapiens, UniProt P00374); assay: Inhibitory concentration for DHFR in recombinant human
T3 sequence (P00374 whole entry): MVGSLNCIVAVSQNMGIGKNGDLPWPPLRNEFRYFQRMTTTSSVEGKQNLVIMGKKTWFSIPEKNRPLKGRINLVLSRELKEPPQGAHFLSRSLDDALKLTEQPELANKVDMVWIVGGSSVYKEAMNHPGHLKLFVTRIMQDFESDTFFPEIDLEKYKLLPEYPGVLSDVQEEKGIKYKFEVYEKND

Dihydrofolate reductase [6] = molecular target: T4, Dihydrofolate reductase (Rattus norvegicus, UniProt Q920D2)
T4 sequence (Q920D2 whole entry): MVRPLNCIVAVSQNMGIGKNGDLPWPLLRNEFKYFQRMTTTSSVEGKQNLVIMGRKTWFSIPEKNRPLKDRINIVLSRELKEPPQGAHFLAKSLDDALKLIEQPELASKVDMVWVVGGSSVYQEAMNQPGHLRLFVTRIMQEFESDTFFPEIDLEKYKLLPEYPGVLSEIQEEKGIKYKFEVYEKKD
Description: Inhibitory concentration for DHFR in rat liver

FaDu [7] = assay: Protection of FaDu cells from growth inhibitory effects of compound by 10 uM leucovorin (LV); assay type: functional, Homo sapiens; set-up: scale not given: the % may be the effect or the level left
FaDu [8] = assay: Growth inhibition of human squamous cell carcinoma FaDu; assay type: functional, cell-based
IGROV-1 = assay: Growth inhibitory concentration against tumor cells in culture ovarian cancer IGROV-1; assay type: functional, Homo sapiens
CCRF-CEM [9] = assay: Growth inhibition of human T-lymphoblastic leukemia cell line CCRF-CEM; assay type: functional, cell-based
MDA-MB-435 = assay: Growth inhibitory concentration against tumor cells in culture breast cancer cell line, MDA-MB-435; assay type: functional, Homo sapiens
R30dm-CCRF-CEM [10] = assay: Growth inhibition of methotrexate resistant human T-lymphoblastic leukemia cell subline R30dm; assay type: functional, cell-based
Homo sapiens = organism: Homo sapiens; assay: (§1) Activity is determined as substrate for CCRF-CEM human leukemia cell folyl-poly-glutamate synthetase; assay type: ADME
[11] = tested on: folylpolyglutamate synthetase (FPGS); assay: as §1; assay type: ADME; details: folylpolyglutamate synthetase from CCRF-CEM leukemia cells
NCI-H460 = assay: Growth inhibitory concentration against tumor cells in culture non-small-cell-lung NCI-H460; assay type: functional, Homo sapiens
LOX IMVI = assay: Growth inhibitory concentration against tumor cells in culture melanoma LOX-IMVI; assay type: functional, Homo sapiens
Thymidylate synthase [12] = molecular target: Thymidylate synthase (Lactobacillus casei, UniProt P00469); assay: Inhibitory concentration for TS in Lactobacillus casei; set-up: species or system Lacticaseibacillus casei
FaDu [13] = assay: Protection of FaDu cells from growth inhibitory effects of compound by 50 uM hypoxanthine (Hx); assay type: functional, Homo sapiens; set-up: scale not given: the % may be the effect or the level left
MDA-N = assay: Growth inhibitory concentration against tumor cells in culture breast cancer cell line, MDA-N; assay type: functional, Homo sapiens
CCRF-CEM [14] = assay: Growth inhibition of methotrexate resistant human T-lymphoblastic leukemia cell subline CEM/MTX; assay type: functional, cell-based
HL-60 = assay: Growth inhibitory concentration against tumor cells in culture leukemia cell line, HL-60(TB); assay type: functional, Homo sapiens
HCT-116 = assay: Growth inhibitory concentration against tumor cells in culture colon cancer HCT116; assay type: functional, Homo sapiens
FaDu [15] = assay: Protection of FaDu cells from growth inhibitory effects of compound with no addition; assay type: functional, Homo sapiens; set-up: scale not given: the % may be the effect or the level left
Thymidylate synthase [16] = molecular target: Thymidylate synthase (Homo sapiens, UniProt P04818); assay: Inhibitory concentration for TS in human
FaDu [17] = assay: Protection of FaDu cells from growth inhibitory effects of compound by combination of 50 uM hypoxanthine (Hx) and 40 uM thymidine (TdR); assay type: functional, Homo sapiens; set-up: scale not given: the % may be the effect or the level left
K562 = assay: Growth inhibitory concentration against tumor cells in culture leukemia cell line, K-562; assay type: functional, Homo sapiens
SF-268 = assay: Growth inhibitory concentration against tumor cells in culture CNS cancer cell line, SF-268; assay type: functional, Homo sapiens
FaDu [18] = assay: Protection of FaDu cells from growth inhibitory effects of compound by 40 uM thymidine (TdR); assay type: functional, Homo sapiens; set-up: scale not given: the % may be the effect or the level left
786-0 = assay: Growth inhibitory concentration against tumor cells in culture renal cancer […] cell line; assay type: functional, Homo sapiens
U-251 = assay: Growth inhibitory concentration against tumor cells in cultureCNS cancer cell line, U-251; assay type: functional, Homo sapiens
PC-3 = assay: Growth inhibitory concentration against tumor cells in culture prostate cancer PC-3; assay type: functional, Homo sapiens
MCF7 = assay: Growth inhibitory concentration against tumor cells in culture breast cancer cell line, MCF-7; assay type: functional, Homo sapiens
R30dm-CCRF-CEM [19] = assay: the growth inhibition of, (during continuous exposure) methotrexate resistant human T-lymphoblastic leukemia cell subline R30dm at resistance mechanism - decreased FPGS; assay type: functional, cell-based
FaDu [20] = assay: the growth inhibition of, (during continuous exposure) human squamous cell carcinoma FaDu at resistance mechanism - sensitive

Chain of Dihydrofolate reductase (Lactobacillus casei, UniProt P00381) (P00381 whole entry): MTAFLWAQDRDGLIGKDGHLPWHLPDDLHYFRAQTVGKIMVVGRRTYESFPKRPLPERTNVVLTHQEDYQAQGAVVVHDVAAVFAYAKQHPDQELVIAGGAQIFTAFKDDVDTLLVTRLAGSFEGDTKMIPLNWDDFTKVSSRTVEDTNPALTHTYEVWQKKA
Chain of Thymidylate synthase (Homo sapiens, UniProt P04818) (P04818 whole entry): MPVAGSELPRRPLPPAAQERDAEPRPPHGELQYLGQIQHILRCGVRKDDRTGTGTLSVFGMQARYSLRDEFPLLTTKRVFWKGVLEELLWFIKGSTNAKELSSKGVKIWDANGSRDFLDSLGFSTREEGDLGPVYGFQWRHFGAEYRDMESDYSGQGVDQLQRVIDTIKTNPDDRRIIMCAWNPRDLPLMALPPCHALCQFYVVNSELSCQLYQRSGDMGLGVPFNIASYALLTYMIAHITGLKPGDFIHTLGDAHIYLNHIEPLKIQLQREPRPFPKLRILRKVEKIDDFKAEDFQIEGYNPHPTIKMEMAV
Chain of Thymidylate synthase (Lactobacillus casei, UniProt P00469) (P00469 whole entry): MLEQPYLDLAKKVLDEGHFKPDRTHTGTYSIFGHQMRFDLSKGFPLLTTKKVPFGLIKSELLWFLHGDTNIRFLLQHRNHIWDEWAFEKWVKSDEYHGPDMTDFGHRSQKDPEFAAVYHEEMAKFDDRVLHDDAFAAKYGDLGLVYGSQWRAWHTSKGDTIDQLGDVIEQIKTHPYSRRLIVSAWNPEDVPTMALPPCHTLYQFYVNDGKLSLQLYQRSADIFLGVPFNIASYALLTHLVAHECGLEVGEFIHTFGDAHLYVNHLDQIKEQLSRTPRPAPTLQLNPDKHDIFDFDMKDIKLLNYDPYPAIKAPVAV

Compound	IC50 (ACHN)	IC50 (Dihydrofolate reductase [1])	IC50 (Dihydrofolate reductase [2])	IC50 (SK-5)	IC50 (CCRF-CEM [3])	IC50 [4]	IC50 (Dihydrofolate reductase [5])	IC50 (Dihydrofolate reductase [6])	Control (FaDu [7])	Vmax (Homo sapiens)	Km [11]	Control (FaDu [13])	Control (FaDu [15])	Control (FaDu [17])	Control (FaDu [18])	also measured
COc1cc(NCc2coc3nc(N)nc(N)c23)cc(OC)c1OC	> 130 µM	> 26 µM	> 4 µM	> 130 µM	111 µM	4 µM	> 26 µM	> 37 µM								
COc1ccc(OC)c(NCc2coc3nc(N)nc(N)c23)c1	> 160 µM	> 31 µM	> 21 µM	> 160 µM	132 µM	> 21 µM	> 15 µM	> 21 µM								
Nc1nc(N)c2c(CNc3cc(Cl)c(Cl)c(Cl)c3)coc2n1	40.9 µM	> 25 µM	8.3 µM	47.6 µM	10.6 µM	> 3.9 µM	> 25 µM	25.6 µM								
Nc1nc(N)c2c(CNc3ccc(C(=O)NC(CCC(=O)O)C(=O)O)cc3)coc2n1 (configuration not stated)	> 100 µM	0.56 µM	0.9 µM	> 100 µM	0.59 µM	0.7 µM	0.45 µM	1.3 µM	110%	0.45 rel	1.9 µM	4.5%	4.9%	82%	18.4%	EC50 (FaDu [8]): 0.126 µM; IG50 (IGROV-1): >100 µM; EC50 (CCRF-CEM [9]): 0.142 µM; IG50 (MDA-MB-435): 45.8 µM; EC50 (R30dm-CCRF-CEM [10]): 0.663 µM; IG50 (NCI-H460): 3.75 µM; IG50 (LOX IMVI): 1.23 µM; IC50 (Thymidylate synthase [12]): > 200 µM; IG50 (MDA-N): 1.73 µM; EC50 (CCRF-CEM [14]): 3.17 µM; IG50 (HL-60): 0.02 µM; IG50 (HCT-116): 0.09 µM; IC50 (Thymidylate synthase [16]): > 200 µM; IG50 (K562): 0.06 µM; IG50 (SF-268): 1.77 µM; IG50 (786-0): 0.91 µM; IG50 (U-251): 1.97 µM; IG50 (PC-3): 0.7 µM; IG50 (MCF7): 6.31 µM
Nc1nc(N)c2c(CNc3ccc(Cl)c(Cl)c3)coc2n1	> 150 µM	> 3 µM	> 35 µM	> 150 µM	40.9 µM		> 15 µM	35.2 µM								
CN(Cc1coc2nc(N)nc(N)c12)c1ccc(C(=O)NC(CCC(=O)O)C(=O)O)cc1 (configuration not stated)	0.837 µM	0.22 µM	0.035 µM	14 µM	0.043 µM	19.8 µM		0.43 µM	106%	0.75 rel	4.65 µM	1.9%	6.6%	80%	17.1%	EC50 (FaDu [8]): 0.055 µM; IG50 (IGROV-1): 0.73 µM; EC50 (CCRF-CEM [9]): 0.047 µM; IG50 (MDA-MB-435): 0.09 µM; EC50 (R30dm-CCRF-CEM [10]): 1.03 µM; IG50 (NCI-H460): 0.15 µM; IG50 (LOX IMVI): 0.04 µM; IC50 (Thymidylate synthase [12]): > 200 µM; IG50 (MDA-N): 0.065 µM; EC50 (CCRF-CEM [14]): 2.27 µM; IG50 (HL-60): <0.01 µM; IG50 (HCT-116): 0.02 µM; IC50 (Thymidylate synthase [16]): > 200 µM; IG50 (K562): 0.024 µM; IG50 (SF-268): 0.59 µM; IG50 (786-0): 0.07 µM; IG50 (U-251): 0.75 µM; IG50 (PC-3): <0.01 µM; IG50 (MCF7): 0.08 µM
Nc1nc(N)c2nc(CNc3ccc(C(=O)N[C@@H](CCC(=O)O)C(=O)O)cc3)cnc2n1 [AMINOPTERIN]										1 rel	6.8 µM					
CN(Cc1cnc2nc(N)nc(N)c2n1)c1ccc(C(=O)N[C@@H](CCC(=O)O)C(=O)O)cc1 [METHOTREXATE]									114%			11%	2.5%	98%	7.3%	EC50 (R30dm-CCRF-CEM [19]): 0.018 µM; EC50 (FaDu [20]): 0.019 µM
